Measured values: patent publication US12285428B2 (IMBRIA PHARMACEUTICALS, INC., priority 2021, dated 2025)

Experiments:
Type in all cases: in vivo, human
[1] = system: healthy subjects; test: FIH study, MAD part: safety and tolerability
Protocol: Subjects received multiple oral doses of an IR formulation of IMB-1018972 or placebo once every 12 hours (q12h) for 14 consecutive days. Each subject participated in only 1 group during the study.
The doses were selected based upon the safety, tolerability, and PK data from the SAD part: • Group B1 multiple oral doses of an IR formulation of 150 mg IMB-1018972 (n=9) or matching placebo (n=3) twice daily (q12h) for 14 days; on Day 14 only a single morning dose was administered • Group B2: multiple oral doses of an IR formulation of 50 mg IMB-1018972 (n=9) or matching placebo (n=3) q12h for 14 days; on Day 14 only a single morning dose was administered
AEs were recorded from (first) admission until completion of the follow-up visit. Any clinically significant observations in results of clinical laboratory, 12-lead ECGs, vital signs, or physical examinations were recorded as AEs.
A treatment-emergent AE (TEAE) was defined as any event not present prior to (the first) administration of the study drug or any event already present that worsened in either severity or frequency following exposure to the study drug.
At several time points before and after drug administration, subjects were asked nonleading questions to determine the occurrence of AEs. Subjects were asked in general terms about any AEs at regular intervals during the study. In addition, all AEs reported spontaneously during the course of the study were recorded. Details included description of the event, date and time of onset, date and time of end, total duration, severity, relationship to study drug, intervention, seriousness, and outcome. All answers were interpreted by the Investigator and were recorded in the eCRF. All AEs were classified according to the Medical Dictionary for Regulatory Activities (MedDRA; Version 22.0) for AEs.
The severity of the AEs was rated as mild, moderate, or severe; the relationship between the AEs and the study drug was indicated as none, unlikely, possibly, likely, or definitely. Adverse events assessed as possibly, likely, or definitely were considered related to the study drug; AEs assessed as none or unlikely were considered not related to the study drug.
In the MAD part, a 12-lead ECG was recorded continuously by telemetry from 2 hours before to 12 hours after drug administration on Day 1, and from 2 hours before to 24 hours after drug administration on Day 14.

[2] = FIH study, all parts combined: plasma PK; details: all blood samples of subjects that received IMB-1018972
Description: The study started with the SAD part.

[3] = system: patients with stable angina; test: Blinded, randomized, controlled Phase 2 study IMB101-006 […]: spontaneously reported renal and urinary findings; details: 200 mg MR BID for 8 weeks, blinded (N=22)
Protocol: In the early Phase 1 study in healthy volunteers and early Phase 2 studies in patients, there were instances of increased urine volume and increased urinary frequency spontaneously reported. • In the first-in-man study, CIMB8972-101, healthy volunteers were dosed with single doses of IMB-1018972 at 50 mg or 200 mg of the modified release (MR) formulation. Two of 12 subjects [2/12] (16.7%) reported 5 events of pollakiuria at both doses. • In an open label Phase 2 study (IMB101-005 DICE) treating patients with Type 2 Diabetes mellitus and obesity for 8 weeks with 200 mg MR BID, two of 22 patients [2/22] (9.1%) spontaneously reported renal and urinary findings. One patient reported pollakiuria and one patient reported increased nocturnal urinary frequency. • In a blinded, randomized, controlled, Phase 2 study (IMB101-006 […]) treating patients with stable angina for 8 weeks with 200 mg MR BID, one of 22 patients [1/22] (4.5%) spontaneously reported renal and urinary findings. One patient reported polyuria.

[4] = MAD part, all IMB-1018972 doses (N=18)

## COc1ccc(CN2CCN(CCOC(=O)c3cccnc3)CC2)c(OC)c1OC [IMB-1018972, 2-[4-[(2,3,4-trimethoxyphenyl)methyl]piperazin-1-yl]ethyl pyridine-3-carboxylate]
[1]; 50 mg IMB-1018972 q12h
  TEAEs of flushing: No TEAEs of flushing
[1]; 50 mg IMB-1018972 q12h fed
  Number of TEAEs: 21
  Subjects reporting TEAEs: 77.8%
[1]; 150 mg IMB-1018972 q12h
  Number of TEAEs of flushing (incidental, mild): 7
  Subjects with TEAEs of flushing: 6 subjects
[1]; 150 mg IMB-1018972 q12h fed
  Number of TEAEs: 14
  Subjects reporting TEAEs: 77.8%
[1]; 14-day oral q12h 50 mg and 150 mg IMB-1018972, fed
  Tolerability: well tolerated
[1]; MAD part
  Severity of all TEAEs: mild
[1]; MAD part, IMB-1018972 (N=18)
  Number of TEAEs considered not related to the study drug: 28
  Number of TEAEs, SOC general disorders and administration site conditions: 7
  Number of TEAEs, SOC musculoskeletal and connective tissue disorders: 7
  Number of TEAEs, SOC vascular disorders (flushing): 7
  Subjects reporting TEAEs considered not related to the study drug: 61.1%
  Subjects reporting TEAEs considered related to the study drug: 33.3%
  Subjects reporting TEAEs, SOC general disorders and administration site conditions: 27.8%
  Subjects reporting TEAEs, SOC musculoskeletal and connective tissue disorders: 27.8%
  Subjects reporting TEAEs, SOC vascular disorders (flushing): 33.3%
[1]; MAD part, IMB-1018972 (N=18), all flushing at 150 mg q12h
  Number of TEAEs considered related to the study drug: 7
[1]; [4]
  Number of TEAEs: 35
  Subjects reporting TEAEs: 77.8%
[2]
  IMB-1018972 in plasma: could be measured in only few plasma samples
[3]
  Patients reporting polyuria: One
  Patients spontaneously reporting renal and urinary findings: 4.5%
